Measured values: patent US4418192A, “Anthracyclinone trisaccharide compounds” (priority 1981, dated 1983)
Converted amounts (≈) assume the structure as drawn. Read-outs that look alike come from different tables or passages of the source.

Legend:
[1] = in words, cited from earlier work
L 1210 leukemia cells = test: Inhibition of growth of L 1210 leukemia cells in culture; assay type: cell-based; conditions: Mus musculus, L1210, 48 h, read-out: IC50 Cell growth
Protocol: L 1210 culture cells (5×10^4 cells/ml; final cell concentration) were inoculated to RPMI 1640 medium (Roswell Park Memorial Institute 1640 medium) containing 20% calf serum and then one of the anthracyclinone glycosides listed in Table 4 was added to make a final concentration of 0.1-5 μg/ml. After incubation at 37° C. for 2 days in a CO2 incubator, the number of cells was counted. Based on these counts, the 50% inhibitory concentration (IC50) of each test compound on the growth of L 1210 leukemia cells was calculated relative to the control test.

[2] = system: RNA synthesis in L 1210 cells; test: Inhibition of RNA synthesis in L 1210 cells (radioactive precursor incorporation); assay type: cell-based; conditions: Mus musculus
Protocol: (§1) For measurement of IC50 on the synthesis of nucleic acids, 5×10^5 L 1210 cells/ml were pre-cultured at 37° C. for 1-2 hours in RPMI 1640 medium containing 10% calf serum in a CO2 incubator. One of the anthracyclinone glycosides listed in Table 4 was added and incubated for a further 15 minutes. Then 0.05 μCi/ml of ^14 C-uridine or ^14 C-thymidine was added and incubated for a further 60 minutes. At the end of incorporation of the radioactive compound, 10% trichloroacetic acid was poured into the cell suspension for termination of the reaction as well as forced precipitation. The acid-insoluble fraction was collected, rinsed three times with 5% trichloroacetic acid and then dissolved in formic acid for measurement of radioactivity. Based on the radioactivities of the test and control runs, IC50 was calculated.

[3] = system: DNA synthesis in L 1210 cells; test: Inhibition of DNA synthesis in L 1210 cells (radioactive precursor incorporation); assay type: cell-based; conditions: Mus musculus
Protocol: as §1

L 1210 leukemia = test: Antitumor activity: prolongation of survival time of CDF1 mice after intraperitoneal transplantation of L 1210 leukemia cells; assay type: in vivo; conditions: Mus musculus, L1210, ip, 720 h, read-out: Prolongation rate of the survival time (T/C)
Protocol: After intraperitoneal transplantation of L 1210 leukemia cells (1×10^5 cells/mouse), 0.25 ml/animal of solutions of one of the anthracyclinone glycosides (HCl salts) of the present invention in physiological saline was intraperitoneally injected to CDF1 mice every day for 9 days.

[4] = L 1210 cells, RPMI 1640 with 20% calf serum, 37° C., 2 days
[5] = L1210, L 1210 cells, 15 min pre-incubation, 60 min with radioactive precursor (^14 C-uridine or ^14 C-thymidine), read-out: IC50 RNA synthesis
[6] = L1210, L 1210 cells, 15 min pre-incubation, 60 min with radioactive precursor (^14 C-uridine or ^14 C-thymidine), read-out: IC50 DNA synthesis
[7] = L1210, read-out: IC50 RNA synthesis
[8] = L1210, read-out: IC50 DNA synthesis

Row | Structure (SMILES) | IC50 (L 1210 leukemia cells; [4]) [µg/mL] | IC50 [2, 5] [µg/mL] | IC50 [3, 6] [µg/mL] | response vs control in vivo at 2.5 mg/kg (L 1210 leukemia) [%] | response vs control in vivo at 5 mg/kg (L 1210 leukemia) [%] | response vs control in vivo at 1.25 mg/kg (L 1210 leukemia) [%] | further results
1 | COc1cccc2c1C(=O)c1c(O)c3c(c(O)c1C2=O)C[C@@](O)(C(=O)CO)C[C@@H]3O[C@H]1C[C@H](N)[C@H](O)[C@H](C)O1 [Adriamycin, reference compound] | 0.018 (≈ 0.0331 µM) | 0.49 (≈ 0.902 µM) | 1.25 (≈ 2.3 µM) |  |  |  | side effects ([1]; clinical use as antitumor chemotherapeutics): often cause undesirable side effects
2 | COc1cccc2c1C(=O)c1c(O)c3c(c(O)c1C2=O)C[C@@](O)(C(C)=O)C[C@@H]3O[C@H]1C[C@H](N)[C@H](O)[C@H](C)O1 [Daunomycin, reference compound] | 0.036 (≈ 0.0682 µM) | 0.18 (≈ 0.341 µM) | 0.3 (≈ 0.569 µM) |  |  |  | 
3 | COc1cccc2c1C(=O)c1c(O)c3c(c(O)c1C2=O)C[C@@](O)(C(=O)COC(=O)Cc1ccccc1)C[C@@H]3O[C@H]1C[C@H](N(C)C)[C@H](O[C@H]2C[C@H](OC(C)=O)[C@H](O[C@H]3CCC(=O)[C@H](C)O3)[C@H](C)O2)[C@H](C)O1 [14-O--phenylacetyl-3"-O--acetyl AMN--RDC] | 0.03 (≈ 0.0308 µM) | 0.15 (≈ 0.154 µM) | 4 (≈ 4.11 µM) |  |  |  | 
4 | CC[C@@]1(O)C[C@H](O[C@H]2C[C@H](N(C)C)[C@H](O[C@H]3C[C@H](OC(C)=O)[C@H](O[C@H]4CCC(=O)[C@H](C)O4)[C@H](C)O3)[C@H](C)O2)c2c(cc3c(c2O)C(=O)c2c(O)cccc2C3=O)[C@H]1C(=O)OC [3"-O--acetyl AKN--RDC] |  |  |  | 114 | 168 |  | response vs control in vivo at 7.5 mg/kg (L 1210 leukemia): 186%; response vs control in vivo at 10 mg/kg (L 1210 leukemia): 180%; IC50 (L 1210 leukemia cells): 0.06 µg/mL (≈ 0.0703 µM); IC50 [2, 7]: 0.1 µg/mL (≈ 0.117 µM); IC50 [3, 8]: 1.3 µg/mL (≈ 1.52 µM)
5 | COc1cccc2c1C(=O)c1c(O)c3c(c(O)c1C2=O)C[C@@](O)(C(=O)CO)C[C@@H]3O[C@H]1C[C@H](N(C)C)[C@H](O[C@H]2C[C@H](O)[C@H](O[C@H]3CCC(=O)[C@H](C)O3)[C@H](C)O2)[C@H](C)O1 [AMN--RDC] | < 0.01 | 0.011 (≈ 0.0135 µM) | 0.15 (≈ 0.184 µM) | 145 | 130 | 158 | response vs control in vivo at 0.32 mg/kg (L 1210 leukemia): 114%; response vs control in vivo at 0.63 mg/kg (L 1210 leukemia): 142%
6 | CC[C@@]1(O)C[C@H](O[C@H]2C[C@H](N(C)C)[C@H](O[C@H]3C[C@H](O)[C@H](O[C@H]4CCC(=O)[C@H](C)O4)[C@H](C)O3)[C@H](C)O2)c2c(cc3c(c2O)C(=O)c2c(O)cccc2C3=O)[C@H]1C(=O)OC [Aclacinomycin A, reference compound] | 0.03 (≈ 0.037 µM) | 0.085 (≈ 0.105 µM) | 0.65 (≈ 0.801 µM) |  |  |  | cardio-toxicity ([1]; U.S. Pat. No. 3,988,315 and Jap. P. No. 864,851): less cardio-toxic
7 | COc1cccc2c1C(=O)c1c(O)c3c(c(O)c1C2=O)C[C@@](O)(C(C)=O)C[C@@H]3O[C@H]1C[C@H](N(C)C)[C@H](O[C@H]2C[C@H](O)[C@H](O)[C@H](C)O2)[C@H](C)O1 [DMN--RD] | < 0.01 | 0.04 (≈ 0.0583 µM) | 0.28 (≈ 0.408 µM) | 165 | 120 | 172 | response vs control in vivo at 0.32 mg/kg (L 1210 leukemia): 114%; response vs control in vivo at 0.63 mg/kg (L 1210 leukemia): 144%
8 | COc1cccc2c1C(=O)c1c(O)c3c(c(O)c1C2=O)C[C@@](O)(C(C)=O)C[C@@H]3O[C@H]1C[C@H](N(C)C)[C@H](O[C@H]2C[C@H](OC(C)=O)[C@H](O[C@H]3CCC(=O)[C@H](C)O3)[C@H](C)O2)[C@H](C)O1 [3"-O--acetyl DMN--RDC] | < 0.01 | 0.02 (≈ 0.0238 µM) | 0.3 (≈ 0.357 µM) | 180 | 210 | 144 | response vs control in vivo at 0.63 mg/kg (L 1210 leukemia): 114%; response vs control in vivo at 7.5 mg/kg (L 1210 leukemia): 164%
9 | CC(=O)[C@]1(O)Cc2c(O)c3c(c(O)c2[C@@H](O[C@H]2C[C@H](N(C)C)[C@H](O[C@H]4C[C@H](O)[C@H](O[C@H]5CCC(=O)[C@H](C)O5)[C@H](C)O4)[C@H](C)O2)C1)C(=O)c1c(O)cccc1C3=O [CMN--RDC] | < 0.01 | 0.035 (≈ 0.0447 µM) | 0.19 (≈ 0.242 µM) | 160 | 180 | 132 | response vs control in vivo at 7.5 mg/kg (L 1210 leukemia): 145%
10 | COc1cccc2c1C(=O)c1c(O)c3c(c(O)c1C2=O)C[C@@](O)(C(C)=O)C[C@@H]3O[C@H]1C[C@H](N)[C@H](O[C@H]2C[C@H](O)[C@H](O[C@H]3CCC(=O)[C@H](C)O3)[C@H](C)O2)[C@H](C)O1 [DMN--DaDC] | 0.09 (≈ 0.117 µM) | 0.165 (≈ 0.214 µM) | 1.15 (≈ 1.49 µM) |  |  |  | 
11 | COc1cccc2c1C(=O)c1c(O)c3c(c(O)c1C2=O)C[C@@](O)(C(=O)CO)C[C@@H]3O[C@H]1C[C@H](N(C)C)[C@H](O[C@H]2C[C@H](OC(C)=O)[C@H](O[C@H]3CCC(=O)[C@H](C)O3)[C@H](C)O2)[C@H](C)O1 [3"-O--acetyl AMN--RDC] | < 0.01 | 0.012 (≈ 0.014 µM) | 0.32 (≈ 0.374 µM) |  |  |  | response vs control in vivo at 0.32 mg/kg (L 1210 leukemia; 0.32 mg/kg/day, i.p. every day for 9 days, HCl salts, L 1210 i.p. in CDF1 mice, control = 100): 144%; response vs control in vivo at 0.63 mg/kg (L 1210 leukemia; 0.63 mg/kg/day, i.p. every day for 9 days, HCl salts, L 1210 i.p. in CDF1 mice, control = 100): 165%; response vs control in vivo at 1.25 mg/kg (L 1210 leukemia; 1.25 mg/kg/day, i.p. every day for 9 days, HCl salts, L 1210 i.p. in CDF1 mice, control = 100): 140%; response vs control in vivo at 2.5 mg/kg (L 1210 leukemia; 2.5 mg/kg/day, i.p. every day for 9 days, HCl salts, L 1210 i.p. in CDF1 mice, control = 100): 96%
12 | COc1cccc2c1C(=O)c1c(O)c3c(c(O)c1C2=O)C[C@@](O)(C(=O)COC(C)=O)C[C@@H]3O[C@H]1C[C@H](N(C)C)[C@H](O[C@H]2C[C@H](OC(C)=O)[C@H](O[C@H]3CCC(=O)[C@H](C)O3)[C@H](C)O2)[C@H](C)O1 [14,3"-O--diacetyl AMN--RDC] |  |  |  |  |  |  | IC50 (L 1210 leukemia cells): < 0.01 µg/mL; IC50 [2, 7]: 0.014 µg/mL (≈ 0.0156 µM); IC50 [3, 8]: 0.5 µg/mL (≈ 0.557 µM)
13 | CC(=O)O[C@H]1C[C@H](O[C@@H]2[C@H](C)O[C@@H](O[C@H]3C[C@](O)(C(C)=O)Cc4c(O)c5c(c(O)c43)C(=O)c3c(O)cccc3C5=O)C[C@@H]2N(C)C)O[C@@H](C)[C@H]1O[C@H]1CCC(=O)[C@H](C)O1 [3"-O--acetyl CMN--RDC] | < 0.01 | 0.04 (≈ 0.0484 µM) | 0.36 (≈ 0.436 µM) | 159 | 208 | 124 | response vs control in vivo at 7.5 mg/kg (L 1210 leukemia): 214%; response vs control in vivo at 10 mg/kg (L 1210 leukemia): 165%
14 | CN[C@H]1C[C@H](O[C@H]2C[C@](O)(C(C)=O)Cc3c(O)c4c(c(O)c32)C(=O)c2c(OC)cccc2C4=O)O[C@@H](C)[C@H]1O[C@H]1C[C@H](O)[C@H](O[C@H]2CCC(=O)[C@H](C)O2)[C@H](C)O1 [DMN--DmDC] |  |  |  |  |  |  | IC50 (L 1210 leukemia cells): 0.023 µg/mL (≈ 0.0293 µM); IC50 [2, 7]: 0.065 µg/mL (≈ 0.0829 µM); IC50 [3, 8]: 0.62 µg/mL (≈ 0.791 µM)
15 | COc1cccc2c1C(=O)c1c(O)c3c(c(O)c1C2=O)C[C@@](O)(C(C)=O)C[C@@H]3O[C@H]1C[C@H](N(C)C)[C@H](O[C@H]2C[C@H](O)[C@H](O[C@H]3CCC(=O)[C@H](C)O3)[C@H](C)O2)[C@H](C)O1 [DMN--RDC] | < 0.01 | 0.017 (≈ 0.0213 µM) | 0.17 (≈ 0.213 µM) | 187 | 126 | 184 | response vs control in vivo at 0.32 mg/kg (L 1210 leukemia): 126%; response vs control in vivo at 0.63 mg/kg (L 1210 leukemia): 135%
